From EPA's ToxRefDB 2

Assays:
[1] = tested on: mouse; details: Subchronic oral toxicity in rodents, b6c3f1, Gavage/Intubation, dose end: 14 week, group: systemic
[2] = tested on: rat; details: Subchronic oral toxicity in rodents, fischer, Gavage/Intubation, dose end: 14 week, group: systemic
[3] = tested on: rat; details: Combined chronic toxicity/carcinogenicity, fischer, Oral, Gavage/Intubation, dose end: 104 week, group: systemic
[4] = tested on: mouse; details: Combined chronic toxicity/carcinogenicity, b6c3f1, Oral, Gavage/Intubation, dose end: 104 week, group: systemic
[5] = tested on: rat; details: Combined chronic toxicity/carcinogenicity, sprague dawley, Oral, Feed, dose end: 2 year, group: systemic
[6] = tested on: rat; details: Multigenerational reproductive toxicity study, sprague dawley, Oral, Feed, dose end: 2 generation
[7] = tested on: mouse; details: Subchronic oral toxicity in rodents, cd1, Feed, dose end: 90 day, group: systemic
[8] = tested on: rat; details: Subchronic oral toxicity in rodents, sprague dawley, Feed, dose end: 90 day, group: systemic
[9] = tested on: mouse; details: Carcinogenicity; cd1; Oral; Feed; dose end: 80 week; group: systemic; systemic / in life observation / body weight / body weight + systemic / in life observation / body weight / body weight gain + systemic / …
[10] = tested on: dog; details: Chronic toxicity, beagle, Oral, Feed, dose end: 52 week, group: systemic
[11] = systemic / pathology microscopic / adrenal gland / atrophy + systemic / pathology microscopic / adrenal gland / vacuolization + systemic / …
[12] = systemic / in life observation / body weight / body weight + systemic / in life observation / body weight / body weight gain
[13] = systemic / in life observation / body weight / body weight + systemic / in life observation / body weight / body weight gain + systemic / …
[14] = systemic / pathology microscopic / liver / basophilic focus
[15] = systemic / pathology microscopic / pancreas / atrophy + systemic / pathology microscopic / pancreas / hyperplasia + systemic / pathology …
[16] = systemic / pathology microscopic / salivary glands / cytoplasmic alteration
[17] = systemic / pathology microscopic / salivary glands / cytoplasmic alteration + systemic / pathology microscopic / liver / carcinoma
[18] = systemic / organ weight / kidney / absolute + systemic / organ weight / kidney / relative to brain weight
[19] = systemic / organ weight / kidney / absolute + systemic / organ weight / kidney / relative to brain weight + systemic / pathology microscopic…
[20] = group: offspring, systemic / in life observation / body weight / offspring (pup) weight
[21] = group: offspring, systemic / in life observation / body weight / offspring (pup) weight + systemic / in life observation / body weight / offspring (pup) …
[22] = group: parental, systemic / in life observation / body weight / body weight + systemic / in life observation / body weight / body weight gain + systemic / in…
[23] = systemic / in life observation / body weight / body weight + systemic / in life observation / body weight / body weight gain + systemic / in…
[24] = systemic / in life observation / food consumption / food consumption

## C[C@]12CCC(=O)C=C1CC[C@@H]1[C@@H]2CC[C@]2(C)C(=O)CC[C@@H]12 [4-Androstene-3,17-dione]
[1]; systemic / pathology microscopic / adrenal gland / atrophy
  LEL: 5 mg/kg/day
[1]; systemic / pathology microscopic / adrenal gland / atrophy + systemic / pathology microscopic / adrenal gland / vacuolization
  NEL: 1 mg/kg/day
[1]; [11]
  LOAEL: > 50 mg/kg/day
  NOAEL: ≥ 50 mg/kg/day
[2]; [12]
  LEL: 1 mg/kg/day
  NEL: < 1 mg/kg/day
[2]; [13]
  LOAEL: > 50 mg/kg/day
  NOAEL: ≥ 50 mg/kg/day
[3]; [14]
  LEL: 10 mg/kg/day
  NEL: < 10 mg/kg/day
[3]; [15]
  LOAEL: 50 mg/kg/day
  NOAEL: 20 mg/kg/day
[4]; [16]
  LOAEL: 2 mg/kg/day
  NOAEL: < 2 mg/kg/day
[4]; [17]
  LEL: 2 mg/kg/day
  NEL: < 2 mg/kg/day

## CCCOC(=O)c1ccc(C(=O)OCCC)nc1 [Dipropyl pyridine-2,5-dicarboxylate]
[5]; [18]
  LEL: 250 mg/kg/day
  LOAEL: 250 mg/kg/day
[5]; [19]
  NEL: 65 mg/kg/day
  NOAEL: 65 mg/kg/day
[6]; [20]
  LEL: 289 mg/kg/day
  LOAEL: 289 mg/kg/day
[6]; [21]
  NEL: 72.9 mg/kg/day
  NOAEL: 72.9 mg/kg/day
[6]; [22]
  LOAEL: 1020 mg/kg/day
  NEL: 66 mg/kg/day
  NOAEL: 255 mg/kg/day
[6]; group: parental, systemic / in life observation / food consumption / food consumption
  LEL: 255 mg/kg/day
[7]; [23]
  LOAEL: 2000 mg/kg/day
  NOAEL: 1000 mg/kg/day
[7]; systemic / organ weight / kidney / absolute + systemic / organ weight / kidney / relative to body weight
  LEL: 500 mg/kg/day
[7]; systemic / organ weight / kidney / relative to body weight + systemic / organ weight / liver / relative to body weight
  NEL: 250 mg/kg/day
[8]; systemic / hematology / hematocrit (hct) / hematocrit (hct)
  LEL: 500 mg/kg/day
[8]; [13]
  LOAEL: 1000 mg/kg/day
  NEL: 250 mg/kg/day
  NOAEL: 500 mg/kg/day
[9]
  LEL: 494 mg/kg/day
  LOAEL: 494 mg/kg/day
  NEL: 124 mg/kg/day
  NOAEL: 124 mg/kg/day
[10]; systemic / in life observation / body weight / body weight gain
  LOAEL: 148 mg/kg/day
[10]; systemic / in life observation / body weight / body weight gain + systemic / in life observation / body weight / body weight + systemic / in…
  NOAEL: 34.3 mg/kg/day
[10]; [24]
  LEL: 8.12 mg/kg/day
  NEL: < 8.12 mg/kg/day
